Test results reported in patent publication US5173494A, “Specific inhibition of angiotensin-II binding to angiotensin-II receptor subtype-2” (E. I. du Pont de Nemours and Company, priority 1991, dated 1992).

What was measured:
[1] = test system: retention of a passive avoidance (PA) response; settings: rats, dorsal neostriatum injection; cited from earlier work
[2] = test system: potassium-stimulated release of ACh in entorhinal cortex; settings: in vitro, entorhinal cortex from rat brain; cited from earlier work
[3] = test system: renin-induced disruption of passive avoidance retention; assay: Renin-disrupted passive avoidance retention; assay type: in vivo, male Sprague-Dawley rats; settings: rats; for prevention of renin-induced amnesia: co-administered with renin, IVT
Procedure: Experimentally naive male Sprague-Dawley rats […] (Charles River Breeding Laboratories, Kingston, N.Y.), weighing between 175 to 200 gm were used. The animals were housed four per cage (45.0 L×20.0 H×26.0 W cm) with free access to food and water. They were maintained on a 12 h light/dark cycle (lights on 0600 h) and at a room temperature of 22±1° C. with relative humidity of 50±10%.
The experimental sessions were conducted in a two-compartment passive avoidance box. One compartment, made of clear plastic with a perforated clear plastic floor, measured 21(L)×24.5(H)×17(W) cm and was illuminated with a 60 watt incandescent light bulb placed 36 cm above the floor. The other compartment, made of black plastic, measured 30.5(L)×20.3(H)×[…] with a floor made of 4 mm stainless steel rods spaced 1.2 cm apart. A grid floor shocker (Coulbourn Instruments) was connected to the steel rods and provided scrambled footshock. The two compartments were separated by a solenoid-operated slide door (Lafayette Instrument Co., Lafayette, Ind.). An electronic counter (Coulbourn Instruments), triggered by the opening or closing of the slide door, recorded acquisition and retention latencies (latencies were defined as the time it took an animal to enter the dark compartment).
Passive avoidance training began by placing the rat into the clear compartment of the two-compartment passive avoidance box. Following a 10 sec delay, the slide door to the dark compartment was raised. Once the rat moved completely into the dark compartment (all four paws on the shock grid floor) the slide door was lowered, and after a 10 sec delay, a 1.0 mA shock was applied to the grid floor for three sec. A second three sec shock was delivered after an additional 10 sec delay. The rats were immediately removed from the dark compartment and returned to their home cage. A retention test was given 24 h later. It proceeded in the same manner as the training session except that no shock was applied to the grid floor when the rats were provided access to the dark compartment for a maximum of 300 sec.
All drugs were administered IVT 60 minutes prior to acquisition training in a volume of 5 μl. Doses are expressed as the free base weight of each compound.

[4] = test system: memory of previously learned tasks; settings: in vivo; cited from earlier work
[5] = test system: mouse habituation (light to dark compartment latency); settings: cited from earlier work
[6] = test system: light/dark habituation performance; settings: subchronic treatment; cited from earlier work
[7] = test system: renin-induced avoidance disruption; settings: cited from earlier work
[8] = test system: renin-induced amnesia in a PA task; assay: PA task after IVT renin (own laboratory); assay type: in vivo
[9] = test system: scopolamine-induced PA amnesia; settings: three times per day at 1, 3 and 10 mg/kg PO; cited from earlier work
[10] = test system: ACh in the striatum and hypothalamus; settings: acute or repeated administration; cited from earlier work
[11] = test system: scopolamine-induced impairment of eight arm radial maze performance; settings: 3 mg/kg IP; cited from earlier work
[12] = test system: uphill avoidance; settings: mice, acute, 30 mg/kg PO; cited from earlier work
[13] = test system: AII in cerebrospinal fluid (CSF); settings: renin IVT; increased from 40; cited from earlier work

For “AII: Angiotensin-II (AII), a circulating hormone, now thought to act as a neuropeptide in the central nervous system (DRVYIHPF; Angiotensin-2; UniProt P01019 25-32, looked up)”, the “effect on retention of a PA response” value [1] is listed as “disruption in retention of a PA response”, the “basal levels of ACh release” value [2] is listed as “without effects on basal levels” and the “potassium-stimulated release of ACh” value [2] is listed as “reduced potassium-stimulated release of ACh”.

In the case of NC(=O)[C@@H]1CCCN1C(=O)[C@H](Cc1cnc[nH]1)NC(=O)[C@@H]1CCC(=O)N1 [thyrotropin releasing hormone], the “effect on retention of a PA response” value [1] is listed as “had no effect”.

For “[1-sarcosine, 8-threonine]angiotensin-II”, the “antagonism of AII effect on ACh release” value [2] is listed as “antagonized”.

For CCCc1nc(C(F)(F)F)c(C(=O)O)n1Cc1ccc(-c2ccccc2-c2nn[nH]n2)cc1 [Compound C, 2-n-propyl-1-[(2'-(lH-tetrazol-5-yl)biphenyl-4-yl)methyl]-4-trifluoromethylimidazole-5-carboxylic acid], the “prevention of renin-induced amnesia” value [3] was “protected against amnesia”.

For NCCCC[C@H](OP(=O)(O)CCCCc1ccccc1)C(=O)N1CCC[C@H]1C(=O)O [SQ 29852], the “effect on anticholinergic effect on performance” value [4] is listed as “ameliorate, at least in part, an anticholinergic effect on performance” and the “effect on memory of previously learned tasks” value [4] is listed as “protective effects on memory of previously learned tasks”.

In the case of CN1[C@@H]2C[C@@H](OC(=O)[C@H](CO)c3ccccc3)C[C@H]1[C@@H]1O[C@@H]12 [scopolamine], the “performance following scopolamine in vehicle-treated mice (initial latency)” value ([5]; scopolamine 0.25 mg kg^-1 i.p., day 6) is listed as “increase in the initial latency”.

For lysine-8-vasopressin, the “effect on retention of a PA response” value [1] is listed as “had no effect”.

For CCCc1nc(C(F)(F)F)c(CO)n1Cc1ccc(-c2ccccc2-c2nnn[nH]2)cc1 [Compound D, 2-n-propyl-5-hydroxymethyl-1-[(2'-(1H-tetrazol-5-yl)biphenyl-4-yl)methyl]-4-trifluoromethylimidazole], the “prevention of renin-induced amnesia” value [3] was “protected against amnesia”.

For Cc1cc(Cn2cnc3c2CC(C(=O)O)N(C(=O)C(c2ccccc2)c2ccccc2)C3)ccc1N (stereo not shown) [EXP655, 1-(4-amino-3-methylphenyl)methyl-5-diphenylacetyl-4,5,6,7-tetrahydro-1H-imidazo[4,5-c]pyridine-6-carboxylic acid], the “initial latency to move from light to dark compartment” value ([5]; 10.0 ng kg^-1 i.p. b.d., days 2 and 3, vs vehicle) is given as “decrease in the initial latency to move from the light to dark compartment”, the “scopolamine-induced impairment in mice treated with EXP655” value ([5]; EXP655 10.0 ng kg^-1 i.p., scopolamine 0.25 mg kg^-1 i.p., day 6) is given as “not detected” and the “prevention of renin-induced amnesia” value [3] is given as “less effective in preventing the amnesia”.

In the case of C[C@H](CS)C(=O)N1CCC[C@H]1C(=O)O [captopril], the “rate of acquisition of light/dark habituation performance” value [6] is given as “increased the rate of acquisition”, the “prevention of renin-induced avoidance disruption” value ([7]; IVT, prior to the renin injection) is given as “prevented the renin-induced avoidance disruption” and the “prevention of renin-induced amnesia in a PA task” value ([8]; IVT administration) is given as “prevented”.

In the case of CCOC(=O)C(CCc1ccccc1)NC(C)C(=O)N1CC2(CC3CCC2CC3)CC1C(=O)O (stereo not shown) [Hoe 288], the “effect on scopolamine-induced PA amnesia” value [9] is listed as “partially reversed the amnesia”, the “ACh in the striatum and hypothalamus” value [10] is listed as “significant decrease in ACh” and the “effect of muscarinic receptor blockade on performance” value [11] is listed as “partially antagonized the effects of muscarinic receptor blockade on performance”. The “performance during retention testing, uphill avoidance” value [12] was “improved performance during retention testing”.

B1: renin: Renin (Sigma Chemicals), a stimulator of endogenous AII biosynthesis (protein, UniProt P00797 67-406, looked up)
Renin: LTLGNTTSSVILTNYMDTQYYGEIGIGTPPQTFKVVFDTGSSNVWVPSSKCSRLYTACVYHKLFDASDSSSYKHNGTELTLRYSTGTVSGFLSQDIITVGGITVTQMFGEVTEMPALPFMLAEFDGVVGMGFIEQAIGRVTPIFDNIISQGVLKEDVFSFYYNRDSENSQSLGGQIVLGGSDPQHYEGNFHYINLIKTGVWQIQMKGVSVGSSTLLCEDGCLALVDTGASYISGSTSSIEKLMEALGAKKRLFDYVVKCNEGPTLPDISFHLGGKEYTLTSADYVFQESYSSKKLCTLAIHAMDIPPPTGPTWALGATFIRKFYTEFDRRNNRIGFALAR
In the case of B1, the “memory deficit produced by renin” value ([3]; renin injected IVT) is given as “produces memory deficit in rats”, the “effect on avoidance learning” value ([7]; renin into lateral ventricle (IVT)) is given as “disruption of avoidance learning” and the “AII in cerebrospinal fluid after renin” value [13] is given as “about 5000 fmol per mL”. The “amnesia in a PA task” value ([8]; renin administered IVT) was “produces a dose-related amnesia”.
